For the test, the target named is Melanocortin receptor 4 (Homo sapiens) (UniProt P32245). The experiment in a line: PubChem AID 602298. Particulars: MC4R stable cells, MTII-stimulated cAMP, TR-FRET. On the technique in general: In TR-FRET formats the signal depends on donor and acceptor labels being close together.

Activity calls are given as the source filed them. The rule behind the calls is not given here.

Chain of Melanocortin receptor 4 (Homo sapiens) (P32245 whole entry, looked up): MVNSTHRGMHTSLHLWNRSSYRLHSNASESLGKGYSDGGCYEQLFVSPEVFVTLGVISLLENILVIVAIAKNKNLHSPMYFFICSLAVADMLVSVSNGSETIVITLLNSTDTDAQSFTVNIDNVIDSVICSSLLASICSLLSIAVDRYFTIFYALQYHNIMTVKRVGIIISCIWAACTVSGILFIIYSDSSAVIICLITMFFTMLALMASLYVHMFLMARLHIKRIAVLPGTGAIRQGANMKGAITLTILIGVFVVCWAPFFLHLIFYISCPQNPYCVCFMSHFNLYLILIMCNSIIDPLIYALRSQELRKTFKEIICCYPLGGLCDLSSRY

For `CCOP(=O)(CCP(=O)(OCC)OCC)OCC.C[CH2][Sn]([Cl])([Cl])[CH2]C`, the IC50 result is “inactive”.
